Results: the NIST ThermoML archive (doi:10.1016/j.jct.2017.05.001)
± gives the expanded uncertainty stated by the source.

Assay: wn = mass fraction of the nth substance listed
Details: 333.15 K, Liquid; for viscosity: Falling or rolling sphere viscometry; for mass density: Vibrating tube method

OCCN(CCO)CCO [triethanolamine] + O
viscosity (5000 kPa, w1 = 0.2991): 1.154 ± 0.038 mPa·s | viscosity (5000 kPa, w1 = 0.4): 1.68 ± 0.055 mPa·s | mass density (5000 kPa, w1 = 0.0992): 999.3 ± 0.7 kg/m3 | mass density (5000 kPa, w1 = 0.2): 1013.6 ± 0.7 kg/m3 | mass density (5000 kPa, w1 = 0.2991): 1028.3 ± 0.7 kg/m3 | mass density (5000 kPa, w1 = 0.4): 1045.1 ± 0.7 kg/m3 | viscosity (10000 kPa, w1 = 0.0992): 0.6149 ± 0.02 mPa·s | viscosity (10000 kPa, w1 = 0.2): 0.8125 ± 0.027 mPa·s | viscosity (10000 kPa, w1 = 0.2991): 1.164 ± 0.038 mPa·s | viscosity (10000 kPa, w1 = 0.4): 1.698 ± 0.056 mPa·s | mass density (10000 kPa, w1 = 0.0992): 1001.4 ± 0.7 kg/m3 | mass density (10000 kPa, w1 = 0.2): 1015.7 ± 0.7 kg/m3 | mass density (10000 kPa, w1 = 0.2991): 1030.4 ± 0.7 kg/m3 | mass density (10000 kPa, w1 = 0.4): 1047.1 ± 0.7 kg/m3 | viscosity (15000 kPa, w1 = 0.0992): 0.6154 ± 0.02 mPa·s | viscosity (15000 kPa, w1 = 0.2): 0.8177 ± 0.027 mPa·s | viscosity (15000 kPa, w1 = 0.2991): 1.168 ± 0.038 mPa·s | viscosity (15000 kPa, w1 = 0.4): 1.704 ± 0.056 mPa·s | mass density (15000 kPa, w1 = 0.0992): 1003.5 ± 0.7 kg/m3 | mass density (15000 kPa, w1 = 0.2): 1017.7 ± 0.7 kg/m3 | mass density (15000 kPa, w1 = 0.2991): 1032.4 ± 0.7 kg/m3 | mass density (15000 kPa, w1 = 0.4): 1049 ± 0.7 kg/m3 | viscosity (20000 kPa, w1 = 0.0992): 0.6178 ± 0.02 mPa·s | viscosity (20000 kPa, w1 = 0.2): 0.82 ± 0.027 mPa·s | viscosity (20000 kPa, w1 = 0.2991): 1.178 ± 0.039 mPa·s | viscosity (20000 kPa, w1 = 0.4): 1.72 ± 0.057 mPa·s | mass density (20000 kPa, w1 = 0.0992): 1005.5 ± 0.7 kg/m3 | mass density (20000 kPa, w1 = 0.2): 1019.7 ± 0.7 kg/m3 | mass density (20000 kPa, w1 = 0.2991): 1034.3 ± 0.7 kg/m3 | mass density (20000 kPa, w1 = 0.4): 1050.9 ± 0.7 kg/m3 | viscosity (25000 kPa, w1 = 0.0992): 0.6198 ± 0.02 mPa·s | viscosity (25000 kPa, w1 = 0.2): 0.8238 ± 0.027 mPa·s | viscosity (25000 kPa, w1 = 0.2991): 1.181 ± 0.039 mPa·s | viscosity (25000 kPa, w1 = 0.4): 1.738 ± 0.057 mPa·s | viscosity (30000 kPa, w1 = 0.0992): 0.6221 ± 0.02 mPa·s | viscosity (30000 kPa, w1 = 0.2): 0.8283 ± 0.027 mPa·s | viscosity (30000 kPa, w1 = 0.2991): 1.189 ± 0.039 mPa·s | viscosity (30000 kPa, w1 = 0.4): 1.748 ± 0.058 mPa·s | mass density (30000 kPa, w1 = 0.0992): 1009.6 ± 0.7 kg/m3 | mass density (30000 kPa, w1 = 0.2): 1023.6 ± 0.7 kg/m3 | mass density (30000 kPa, w1 = 0.2991): 1038.2 ± 0.7 kg/m3 | mass density (30000 kPa, w1 = 0.4): 1054.7 ± 0.7 kg/m3 | viscosity (40000 kPa, w1 = 0.0992): 0.625 ± 0.021 mPa·s | viscosity (40000 kPa, w1 = 0.2): 0.8329 ± 0.027 mPa·s | viscosity (40000 kPa, w1 = 0.2991): 1.203 ± 0.04 mPa·s | viscosity (40000 kPa, w1 = 0.4): 1.771 ± 0.058 mPa·s | mass density (40000 kPa, w1 = 0.0992): 1013.6 ± 0.7 kg/m3 | mass density (40000 kPa, w1 = 0.2): 1027.7 ± 0.7 kg/m3 | mass density (40000 kPa, w1 = 0.2991): 1042.1 ± 0.7 kg/m3 | mass density (40000 kPa, w1 = 0.4): 1058.4 ± 0.7 kg/m3 | mass density (50000 kPa, w1 = 0.0992): 1017.5 ± 0.7 kg/m3 | mass density (50000 kPa, w1 = 0.2): 1031.4 ± 0.7 kg/m3 | mass density (50000 kPa, w1 = 0.2991): 1045.7 ± 0.7 kg/m3 | mass density (50000 kPa, w1 = 0.4): 1062 ± 0.7 kg/m3 | viscosity (60000 kPa, w1 = 0.0992): 0.6327 ± 0.021 mPa·s | viscosity (60000 kPa, w1 = 0.2): 0.8473 ± 0.028 mPa·s | viscosity (60000 kPa, w1 = 0.2991): 1.225 ± 0.04 mPa·s | viscosity (60000 kPa, w1 = 0.4): 1.826 ± 0.06 mPa·s | mass density (60000 kPa, w1 = 0.0992): 1021.3 ± 0.7 kg/m3 | mass density (60000 kPa, w1 = 0.2): 1035 ± 0.7 kg/m3 | mass density (60000 kPa, w1 = 0.2991): 1049.4 ± 0.7 kg/m3 | mass density (60000 kPa, w1 = 0.4): 1065.6 ± 0.7 kg/m3 | mass density (70000 kPa, w1 = 0.0992): 1024.8 ± 0.7 kg/m3 | mass density (70000 kPa, w1 = 0.2): 1038.6 ± 0.7 kg/m3 | mass density (70000 kPa, w1 = 0.2991): 1052.9 ± 0.7 kg/m3 | mass density (70000 kPa, w1 = 0.4): 1069 ± 0.8 kg/m3 | viscosity (80000 kPa, w1 = 0.0992): 0.6418 ± 0.021 mPa·s | viscosity (80000 kPa, w1 = 0.2): 0.8631 ± 0.028 mPa·s | viscosity (80000 kPa, w1 = 0.2991): 1.253 ± 0.041 mPa·s | viscosity (80000 kPa, w1 = 0.4): 1.878 ± 0.062 mPa·s | mass density (80000 kPa, w1 = 0.0992): 1028.6 ± 0.7 kg/m3 | mass density (80000 kPa, w1 = 0.2): 1042.1 ± 0.7 kg/m3 | mass density (80000 kPa, w1 = 0.2991): 1056.3 ± 0.7 kg/m3 | mass density (80000 kPa, w1 = 0.4): 1072.3 ± 0.8 kg/m3 | mass density (90000 kPa, w1 = 0.0992): 1032 ± 0.7 kg/m3 | mass density (90000 kPa, w1 = 0.2): 1045.6 ± 0.7 kg/m3 | mass density (90000 kPa, w1 = 0.2991): 1059.7 ± 0.8 kg/m3 | mass density (90000 kPa, w1 = 0.4): 1075.5 ± 0.8 kg/m3 | viscosity (100000 kPa, w1 = 0.0992): 0.6513 ± 0.021 mPa·s | viscosity (100000 kPa, w1 = 0.2): 0.8789 ± 0.029 mPa·s | viscosity (100000 kPa, w1 = 0.2991): 1.293 ± 0.043 mPa·s | viscosity (100000 kPa, w1 = 0.4): 1.964 ± 0.065 mPa·s | mass density (100000 kPa, w1 = 0.0992): 1035.6 ± 0.7 kg/m3 | mass density (100000 kPa, w1 = 0.2): 1049.1 ± 0.7 kg/m3 | mass density (100000 kPa, w1 = 0.2991): 1063.2 ± 0.8 kg/m3 | mass density (100000 kPa, w1 = 0.4): 1078.9 ± 0.8 kg/m3 | mass density (110000 kPa, w1 = 0.0992): 1039 ± 0.7 kg/m3 | mass density (110000 kPa, w1 = 0.2): 1052.3 ± 0.8 kg/m3 | mass density (110000 kPa, w1 = 0.2991): 1066.3 ± 0.8 kg/m3 | mass density (110000 kPa, w1 = 0.4): 1082 ± 0.8 kg/m3 | mass density (120000 kPa, w1 = 0.0992): 1042.5 ± 0.7 kg/m3 | mass density (120000 kPa, w1 = 0.2): 1055.8 ± 0.8 kg/m3 | mass density (120000 kPa, w1 = 0.2991): 1069.8 ± 0.8 kg/m3 | mass density (120000 kPa, w1 = 0.4): 1085.3 ± 0.8 kg/m3
